Test results: ChEMBL document CHEMBL3132769, “Fragment growing to retain or alter the selectivity of anchored kinase hinge-binding fragments” (Medchemcomm, 2014)

Columns and labels:
[1] = biological target: T1, Serine/threonine-protein kinase DCLK2 (Homo sapiens) (UniProt Q8N568); test: Inhibition of human full length DCAMKL2 expressed in baculovirus assessed as substrate phosphorylation using fluorescence-labelled peptides as substrate at 9 uM after 90 mins by microfluidic peptide phosphorylation assay
T1 sequence (whole entry): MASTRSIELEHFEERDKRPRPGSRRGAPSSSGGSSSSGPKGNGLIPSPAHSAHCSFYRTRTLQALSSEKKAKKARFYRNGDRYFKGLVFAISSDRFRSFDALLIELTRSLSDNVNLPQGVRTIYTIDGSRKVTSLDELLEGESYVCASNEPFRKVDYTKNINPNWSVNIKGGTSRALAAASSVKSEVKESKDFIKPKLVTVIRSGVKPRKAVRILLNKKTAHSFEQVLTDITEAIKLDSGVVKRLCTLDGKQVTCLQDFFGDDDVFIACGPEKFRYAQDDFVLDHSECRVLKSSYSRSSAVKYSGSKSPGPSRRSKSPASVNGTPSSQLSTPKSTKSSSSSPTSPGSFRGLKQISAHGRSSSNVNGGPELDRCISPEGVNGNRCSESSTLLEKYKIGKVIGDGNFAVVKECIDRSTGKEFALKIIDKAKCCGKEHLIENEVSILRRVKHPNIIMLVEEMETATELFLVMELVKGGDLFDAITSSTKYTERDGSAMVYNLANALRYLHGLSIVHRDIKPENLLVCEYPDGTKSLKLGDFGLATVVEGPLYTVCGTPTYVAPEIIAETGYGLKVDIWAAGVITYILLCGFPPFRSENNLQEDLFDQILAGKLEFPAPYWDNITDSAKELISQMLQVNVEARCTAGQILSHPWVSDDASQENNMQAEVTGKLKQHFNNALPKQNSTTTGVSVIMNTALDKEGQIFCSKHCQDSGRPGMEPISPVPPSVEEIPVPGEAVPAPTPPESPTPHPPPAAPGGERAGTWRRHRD

[2] = biological target: T2, Serine/threonine-protein kinase BRSK2 (Homo sapiens) (UniProt Q8IWQ3); test: Inhibition of human truncated BRSK2 expressed in baculovirus assessed as substrate phosphorylation using fluorescence-labelled peptides as substrate at 9 uM after 90 mins by microfluidic peptide phosphorylation assay
T2 sequence (whole entry): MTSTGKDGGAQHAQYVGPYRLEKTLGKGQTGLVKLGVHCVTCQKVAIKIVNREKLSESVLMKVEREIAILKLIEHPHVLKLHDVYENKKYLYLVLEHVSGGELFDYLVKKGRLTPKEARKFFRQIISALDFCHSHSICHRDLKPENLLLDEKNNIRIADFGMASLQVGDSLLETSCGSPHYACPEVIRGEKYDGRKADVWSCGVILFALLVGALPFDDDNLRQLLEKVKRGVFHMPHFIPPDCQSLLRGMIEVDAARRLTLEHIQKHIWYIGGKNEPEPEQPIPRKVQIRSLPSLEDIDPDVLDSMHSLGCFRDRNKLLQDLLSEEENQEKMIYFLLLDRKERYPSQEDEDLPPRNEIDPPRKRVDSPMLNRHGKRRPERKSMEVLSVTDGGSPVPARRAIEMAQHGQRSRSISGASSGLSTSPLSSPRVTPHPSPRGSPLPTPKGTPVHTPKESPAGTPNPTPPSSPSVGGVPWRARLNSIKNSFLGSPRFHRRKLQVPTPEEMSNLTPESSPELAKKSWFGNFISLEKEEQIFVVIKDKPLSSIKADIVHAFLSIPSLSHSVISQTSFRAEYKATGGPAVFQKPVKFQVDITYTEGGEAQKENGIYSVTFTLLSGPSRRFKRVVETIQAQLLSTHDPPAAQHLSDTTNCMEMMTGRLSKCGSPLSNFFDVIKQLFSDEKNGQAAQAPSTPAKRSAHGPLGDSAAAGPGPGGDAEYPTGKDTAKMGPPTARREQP

[3] = biological target: Hepatocyte growth factor receptor (Homo sapiens) (UniProt P08581); test: Inhibition of human MET cytoplasmic domain expressed in baculovirus assessed as substrate phosphorylation using fluorescence-labelled peptides as substrate at 95 uM after 90 mins by microfluidic peptide phosphorylation assay
[4] = biological target: Protein kinase C delta type (Homo sapiens) (UniProt Q05655); test: Inhibition of human truncated PKC delta expressed in baculovirus assessed as substrate phosphorylation using fluorescence-labelled peptides as substrate at 0.06 uM after 90 mins by microfluidic peptide phosphorylation assay
[5] = biological target: T3, Cytoplasmic tyrosine-protein kinase BMX (Homo sapiens) (UniProt P51813); test: Inhibition of human full length BMX expressed in baculovirus assessed as substrate phosphorylation using fluorescence-labelled peptides as substrate at 0.06 uM after 90 mins by microfluidic peptide phosphorylation assay
T3 sequence (whole entry): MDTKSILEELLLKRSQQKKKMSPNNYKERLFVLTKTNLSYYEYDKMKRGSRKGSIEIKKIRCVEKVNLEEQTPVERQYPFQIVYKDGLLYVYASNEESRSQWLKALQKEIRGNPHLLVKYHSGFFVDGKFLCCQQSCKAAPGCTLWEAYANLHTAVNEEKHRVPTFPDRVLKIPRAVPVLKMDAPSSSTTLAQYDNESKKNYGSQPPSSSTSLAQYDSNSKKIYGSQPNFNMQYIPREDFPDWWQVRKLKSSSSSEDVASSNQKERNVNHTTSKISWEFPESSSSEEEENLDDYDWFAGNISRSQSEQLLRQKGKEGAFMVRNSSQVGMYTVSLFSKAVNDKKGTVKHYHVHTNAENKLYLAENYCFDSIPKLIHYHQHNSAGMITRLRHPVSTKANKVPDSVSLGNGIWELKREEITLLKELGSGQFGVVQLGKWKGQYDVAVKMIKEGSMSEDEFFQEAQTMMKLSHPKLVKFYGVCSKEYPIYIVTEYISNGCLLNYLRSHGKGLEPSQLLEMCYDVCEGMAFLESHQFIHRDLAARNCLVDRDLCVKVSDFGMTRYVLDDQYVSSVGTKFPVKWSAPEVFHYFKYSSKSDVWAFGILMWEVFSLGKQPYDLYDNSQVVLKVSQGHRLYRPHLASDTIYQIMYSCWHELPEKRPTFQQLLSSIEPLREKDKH

[6] = biological target: Vascular endothelial growth factor receptor 2 (Homo sapiens) (UniProt P35968); test: Inhibition of human KDR cytoplasmic domain expressed in baculovirus assessed as substrate phosphorylation using fluorescence-labelled peptides as substrate at 70 uM after 90 mins by microfluidic peptide phosphorylation assay
Vascular endothelial growth factor receptor 2 (Homo sapiens), sequence (P35968 whole entry, the tested form may be a part): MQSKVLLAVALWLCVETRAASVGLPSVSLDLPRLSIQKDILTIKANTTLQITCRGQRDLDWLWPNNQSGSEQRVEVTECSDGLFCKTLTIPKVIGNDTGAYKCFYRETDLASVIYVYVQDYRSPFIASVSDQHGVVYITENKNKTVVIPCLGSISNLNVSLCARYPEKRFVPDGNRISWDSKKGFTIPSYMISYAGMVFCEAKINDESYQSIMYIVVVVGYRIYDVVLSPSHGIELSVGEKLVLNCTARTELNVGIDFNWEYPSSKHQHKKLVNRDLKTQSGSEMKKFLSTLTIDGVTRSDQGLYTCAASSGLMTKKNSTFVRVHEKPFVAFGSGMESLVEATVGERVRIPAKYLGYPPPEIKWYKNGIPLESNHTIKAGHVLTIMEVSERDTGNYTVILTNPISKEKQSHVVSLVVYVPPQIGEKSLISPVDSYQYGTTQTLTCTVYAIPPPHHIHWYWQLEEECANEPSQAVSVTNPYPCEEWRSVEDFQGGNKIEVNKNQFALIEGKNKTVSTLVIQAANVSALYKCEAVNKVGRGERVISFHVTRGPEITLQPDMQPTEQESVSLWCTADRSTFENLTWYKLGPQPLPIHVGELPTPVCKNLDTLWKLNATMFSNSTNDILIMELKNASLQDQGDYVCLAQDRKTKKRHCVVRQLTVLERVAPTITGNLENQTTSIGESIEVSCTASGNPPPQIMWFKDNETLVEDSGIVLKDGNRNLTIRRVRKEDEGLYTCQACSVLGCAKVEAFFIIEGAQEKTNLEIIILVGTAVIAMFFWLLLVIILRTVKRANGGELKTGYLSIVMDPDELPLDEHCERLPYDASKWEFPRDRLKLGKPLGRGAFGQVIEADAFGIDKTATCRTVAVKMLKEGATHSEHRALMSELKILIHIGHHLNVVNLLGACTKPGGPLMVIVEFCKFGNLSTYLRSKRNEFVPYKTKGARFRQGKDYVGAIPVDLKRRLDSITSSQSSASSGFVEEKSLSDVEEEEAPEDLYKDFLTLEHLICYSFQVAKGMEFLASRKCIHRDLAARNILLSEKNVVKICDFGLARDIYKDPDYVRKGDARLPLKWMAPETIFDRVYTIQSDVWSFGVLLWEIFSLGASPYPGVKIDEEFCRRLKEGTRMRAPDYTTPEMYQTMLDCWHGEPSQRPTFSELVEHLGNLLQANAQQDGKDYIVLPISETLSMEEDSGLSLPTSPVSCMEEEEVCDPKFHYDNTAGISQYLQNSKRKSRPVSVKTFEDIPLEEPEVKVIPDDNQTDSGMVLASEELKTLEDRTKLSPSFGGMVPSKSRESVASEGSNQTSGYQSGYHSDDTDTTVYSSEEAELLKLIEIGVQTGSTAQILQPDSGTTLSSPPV

Hepatocyte growth factor receptor (Homo sapiens), sequence (P08581 whole entry, the tested form may be a part): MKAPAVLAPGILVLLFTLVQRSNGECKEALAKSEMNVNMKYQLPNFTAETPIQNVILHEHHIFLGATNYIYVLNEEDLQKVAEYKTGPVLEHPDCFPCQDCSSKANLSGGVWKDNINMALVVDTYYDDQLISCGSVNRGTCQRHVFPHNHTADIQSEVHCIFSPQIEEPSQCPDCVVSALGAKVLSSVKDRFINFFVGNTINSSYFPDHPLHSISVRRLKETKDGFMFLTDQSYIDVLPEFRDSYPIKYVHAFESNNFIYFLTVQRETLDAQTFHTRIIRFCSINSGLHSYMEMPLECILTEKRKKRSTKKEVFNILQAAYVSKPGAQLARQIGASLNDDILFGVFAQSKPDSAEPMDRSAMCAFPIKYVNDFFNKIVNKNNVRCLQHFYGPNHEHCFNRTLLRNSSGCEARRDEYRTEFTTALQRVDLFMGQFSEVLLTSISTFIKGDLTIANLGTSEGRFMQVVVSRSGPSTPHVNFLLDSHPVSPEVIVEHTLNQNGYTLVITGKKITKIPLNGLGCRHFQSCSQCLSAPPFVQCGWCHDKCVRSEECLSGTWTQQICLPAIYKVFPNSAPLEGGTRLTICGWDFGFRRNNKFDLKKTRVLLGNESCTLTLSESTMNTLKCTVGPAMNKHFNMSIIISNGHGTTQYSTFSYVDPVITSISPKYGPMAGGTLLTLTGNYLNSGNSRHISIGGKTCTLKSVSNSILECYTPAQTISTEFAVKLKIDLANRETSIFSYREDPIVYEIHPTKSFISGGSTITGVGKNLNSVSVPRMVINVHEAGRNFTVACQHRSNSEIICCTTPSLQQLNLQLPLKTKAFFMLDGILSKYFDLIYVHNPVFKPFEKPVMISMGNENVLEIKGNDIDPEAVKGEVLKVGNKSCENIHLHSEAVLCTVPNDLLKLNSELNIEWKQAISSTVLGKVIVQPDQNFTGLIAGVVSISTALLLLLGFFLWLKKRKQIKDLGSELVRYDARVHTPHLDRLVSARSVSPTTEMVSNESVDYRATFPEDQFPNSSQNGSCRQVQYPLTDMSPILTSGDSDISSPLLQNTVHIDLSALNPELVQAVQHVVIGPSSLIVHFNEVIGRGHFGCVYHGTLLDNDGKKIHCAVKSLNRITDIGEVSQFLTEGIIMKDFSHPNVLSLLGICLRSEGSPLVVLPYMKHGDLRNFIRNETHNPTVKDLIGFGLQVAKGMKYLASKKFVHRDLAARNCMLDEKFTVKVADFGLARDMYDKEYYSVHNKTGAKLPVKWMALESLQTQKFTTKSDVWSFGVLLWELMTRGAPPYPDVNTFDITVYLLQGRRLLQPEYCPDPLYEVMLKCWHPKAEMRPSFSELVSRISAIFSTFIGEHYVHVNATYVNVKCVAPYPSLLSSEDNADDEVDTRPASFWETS
Protein kinase C delta type (Homo sapiens), sequence (Q05655 whole entry, looked up, the tested form may be a part): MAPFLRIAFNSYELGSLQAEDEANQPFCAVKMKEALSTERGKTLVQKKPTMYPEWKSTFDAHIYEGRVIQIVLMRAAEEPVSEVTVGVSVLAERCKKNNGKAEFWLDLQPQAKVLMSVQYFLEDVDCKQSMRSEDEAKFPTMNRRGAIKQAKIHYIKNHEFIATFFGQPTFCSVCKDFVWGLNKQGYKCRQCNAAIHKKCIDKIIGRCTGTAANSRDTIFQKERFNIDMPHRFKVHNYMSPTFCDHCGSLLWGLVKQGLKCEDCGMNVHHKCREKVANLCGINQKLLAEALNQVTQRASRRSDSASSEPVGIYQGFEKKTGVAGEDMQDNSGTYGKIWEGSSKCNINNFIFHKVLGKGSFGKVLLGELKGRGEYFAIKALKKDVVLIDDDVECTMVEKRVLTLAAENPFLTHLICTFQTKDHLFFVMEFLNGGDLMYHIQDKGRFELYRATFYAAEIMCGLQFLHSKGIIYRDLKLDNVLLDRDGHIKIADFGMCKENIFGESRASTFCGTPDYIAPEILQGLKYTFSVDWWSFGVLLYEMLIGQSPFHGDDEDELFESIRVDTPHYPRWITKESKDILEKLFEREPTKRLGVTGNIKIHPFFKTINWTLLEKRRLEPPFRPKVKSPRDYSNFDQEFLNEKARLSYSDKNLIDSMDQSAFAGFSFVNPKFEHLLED

SMILES: NCC1CN(c2ncnc3[nH]c4cnccc4c23)CCO1 (stereo unspecified)
- inhibition [1]: 3%
- inhibition [2]: 36%

SMILES: NCCc1ccc(-c2ncnc3[nH]cnc23)cc1
- inhibition [3]: 5.5%

SMILES: NC1(Cc2ccc(Cl)cc2)CCN(c2ncnc3[nH]ccc23)CC1
- inhibition [4]: 2%
- inhibition [5]: 0%

SMILES: CNCc1ccc(-c2ncnc3[nH]cnc23)cc1
- inhibition [6]: 64%
